Results reported in patent US10918713B2, “Epitopes from allergen proteins and methods and uses for immune response modulation” (LA JOLLA INSTITUTE FOR ALLERGY AND IMMUNOLOGY, priority 2012, dated 2021).
Several values for one entry are separate records, joined by “and”; a condition that tells them apart may be missing. Equal entries are not always repeated.

How the values were obtained:
Type in all cases: cell-based, human
[1] = tested on: PBMC from allergic donors; assay: IL-5 ELISPOT with extract-stimulated short-term lines; settings: positive donor/peptide response
Description: (§1) Spots were counted by computer-assisted image analysis (Zeiss, KS-ELISPOT reader, Munich, Germany).
(§2) Each assay was performed in triplicate. The level of statistical significance was determined with a Student's t-test using the mean of triplicate values of the response against relevant pools or individual peptides versus the response against the DMSO control.

[2] = tested on: PBMC from allergic donors; assay: Dual ELISPOT, total IL-5 and IFN-γ response (SFC); settings: for Response (SFC/10^6) Total: sum of IFNg and IL-5
Description: as §1, §2

[3] = tested on: PBMC from allergic donors; assay: IFN-γ ELISPOT with extract-stimulated short-term lines; settings: positive donor/peptide response
Description: as §1, §2

HLA-DP = assay: HLA locus restriction, mAb inhibition of ELISPOT response; settings: count; ≥50% inhibition by anti-HLA-DP mAb B7/21; 0/0/0 = locus could not be determined
Description: (§3) To determine the HLA locus restriction of identified epitopes, mAb inhibition assays were performed as described previously (11, 37). Preliminary determinations were made on control T cell clones of known specificity to determine optimal antibody doses leading to complete inhibition of the specific clones, and not associated with inhibition of clones known to be restricted by a different HLA allele or locus. This antibody concentration was then utilized in experiments where a dose response of antigenic peptide was tested in the presence or absence of the specific antibodies. Experimental determinations were performed utilizing ELISPOT assays specific for the particular lymphokine utilized to originally identify the particular epitope mapped.
(§4) For each antigenic region/donor combination short-term T cell lines were derived by extract stimulation of triplicate cultures of 2-3 million cells. IL-2 was added 5-8 days following stimulation. After 14 days of stimulation with the corresponding allergen extract (2-50 μg/ml), the HLA locus that restricted the response to the specific lymphokine was determined by measuring the capacity of mAbs specific for HLA-DR, DP or DQ to inhibit (block) the response. For this, PBMCs were incubated with 10 μg/ml of mAbs (Strategic Biosolutions, Windham, Me.) against HLA-DR (LB3.1), DP (B7/21) or DQ (SVPL3) 30 minutes prior to addition of 10 μg/ml of peptide. Cytokine production induced by positive peptides was then measured in ELISPOT assays as described above. The pan MHC class I Ab (W6/32) was used as a control. The decrease (inhibition) in cytokine production in the presence of an HLA locus specific mAb, relative to production in the absence of mAb, was determined.

HLA-DR = assay: as above; settings: count; ≥50% inhibition by anti-HLA-DR mAb LB3.1; 0/0/0 = locus could not be determined
Description: as §3, §4

HLA-DQ = assay: as above; settings: count; ≥50% inhibition by anti-HLA-DQ mAb SVPL3; 0/0/0 = locus could not be determined
Description: as §3, §4

Compound | Response (SFC/10^6) IL-5 ([1]; each table line is one donor) | Response (SFC/10^6) Total ([2]; each table line is one donor) | Response (SFC/10^6) IFNg ([3]; each table line is one donor) | also measured
CC[C@H](C)[C@H](NC(=O)[C@H](CC(C)C)NC(=O)[C@H](CC(N)=O)NC(=O)[C@H](CC(=O)O)NC(=O)[C@H](CO)NC(=O)[C@H](CC(=O)O)NC(=O)[C@H](CC(C)C)NC(=O)[C@@H](NC(=O)[C@H](Cc1ccccc1)NC(=O)[C@H](C)NC(=O)[C@@H](N)CCCCN)C(C)C)C(=O)N1CCC[C@H]1C(=O)N[C@@H](CCCCN)C(=O)N[C@H](C(=O)N[C@H](C(=O)O)C(C)C)C(C)C [3324.1588] |  |  |  | Response (SFC/10^6) IL-5 ([1]; one donor per table line): 123 SFC/10^6 and 947 SFC/10^6 and 57 SFC/10^6; Response (SFC/10^6) Total ([2]; one donor per table line): 123 SFC/10^6 and 1147 SFC/10^6 and 57 SFC/10^6; Response (SFC/10^6) IFNg ([3]; one donor per table line): 200 SFC/10^6
CC[C@H](C)[C@H](NC(=O)[C@H](Cc1ccc(O)cc1)NC(=O)[C@H](CCC(=O)O)NC(=O)[C@H](CC(C)C)NC(=O)[C@H](CO)NC(=O)[C@@H](NC(=O)[C@@H](N)Cc1ccccc1)[C@@H](C)O)C(=O)N[C@@H](CCC(=O)O)C(=O)N[C@@H](C)C(=O)N[C@@H](C)C(=O)N[C@@H](CCCCN)C(=O)N[C@@H](Cc1c[nH]c2ccccc12)C(=O)N[C@@H](CC(C)C)C(=O)N[C@@H](CC(C)C)C(=O)N1CCC[C@H]1C(=O)O [3324.1589] | 1433 SFC/10^6 and 203 SFC/10^6 | 1743 SFC/10^6 and 203 SFC/10^6 | 310 SFC/10^6 | 
CC[C@H](C)[C@H](NC(=O)[C@H](Cc1ccccc1)NC(=O)[C@H](CC(=O)O)NC(=O)[C@@H](NC(=O)[C@@H](NC(=O)CNC(=O)[C@@H](N)CCC(=O)O)[C@@H](C)O)C(C)C)C(=O)N[C@@H](Cc1ccccc1)C(=O)NCC(=O)N[C@@H](CCC(=O)O)C(=O)N[C@@H](C)C(=O)N[C@@H](CCCNC(=N)N)C(=O)N[C@@H](CO)C(=O)N[C@@H](CC(C)C)C(=O)N[C@@H](Cc1ccc(O)cc1)C(=O)O [3324.1590] | 1300 SFC/10^6 and 363 SFC/10^6 | 1697 SFC/10^6 and 363 SFC/10^6 | 397 SFC/10^6 | 
CC[C@H](C)[C@H](N)C(=O)N[C@@H](C)C(=O)N[C@@H](Cc1ccccc1)C(=O)N[C@@H](Cc1ccccc1)C(=O)N[C@@H](CCCNC(=N)N)C(=O)N[C@@H](CCCCN)C(=O)N[C@@H](CCC(=O)O)C(=O)N1CCC[C@H]1C(=O)N[C@@H](CC(C)C)C(=O)N[C@@H](CCCCN)C(=O)N[C@@H](CCC(=O)O)C(=O)N[C@@H](CS)C(=O)NCC(=O)NCC(=O)N[C@H](C(=O)O)[C@@H](C)CC [3337.0029] |  |  |  | Response (SFC/10^6) IL-5 ([1]; one donor per table line): 180 SFC/10^6; Response (SFC/10^6) Total ([2]; one donor per table line): 257 SFC/10^6; Response (SFC/10^6) IFNg ([3]; one donor per table line): 77 SFC/10^6
CSCC[C@H](N)C(=O)N[C@@H](CCCNC(=N)N)C(=O)N[C@@H](CC(N)=O)C(=O)N[C@H](C(=O)N[C@@H](Cc1ccccc1)C(=O)N[C@@H](CC(=O)O)C(=O)N[C@@H](CC(=O)O)C(=O)N[C@H](C(=O)N[C@H](C(=O)N1CCC[C@H]1C(=O)N[C@@H](C)C(=O)N[C@@H](CC(=O)O)C(=O)N[C@@H](Cc1ccccc1)C(=O)N[C@@H](CCCCN)C(=O)N[C@H](C(=O)O)C(C)C)C(C)C)C(C)C)C(C)C [3337.0030] | 110 SFC/10^6 and 133 SFC/10^6 and 447 SFC/10^6 | 213 SFC/10^6 and 133 SFC/10^6 and 907 SFC/10^6 | 103 SFC/10^6 and 460 SFC/10^6 | 
CSCC[C@H](NC(=O)[C@@H]1CCCN1C(=O)CNC(=O)[C@@H](NC(=O)[C@H](CC(C)C)NC(=O)[C@@H]1CCCN1C(=O)[C@H](CCCCN)NC(=O)[C@H](C)NC(=O)[C@H](CO)NC(=O)[C@H](CCCCN)NC(=O)[C@@H](NC(=O)[C@H](CCC(=O)O)NC(=O)[C@H](Cc1c[nH]c2ccccc12)NC(=O)[C@@H](N)CC(C)C)C(C)C)[C@@H](C)O)C(=O)N[C@@H](CC(N)=O)C(=O)O [3337.0031] | 1010 SFC/10^6 | 90 SFC/10^6 and 1713 SFC/10^6 | 90 SFC/10^6 and 703 SFC/10^6 | 
Bet v 1 (111-125): epitope region of allergen Bet v 1, Birch |  |  |  | Region restriction(s) DP (HLA-DP): 0; Region restriction(s) DR (HLA-DR): 2; Region restriction(s) DQ (HLA-DQ): 0; Donors responding ([2]; number of allergic donors recognizing the epitope region): 3; % responding ([2]; percent of tested allergic donors responding): 30.0%; Total SFC ([2]; total response to the epitope region): 1132 SFC
